These results are taken from paper PMC3486884 (PLoS Pathogens, 2012).

Where two headings read alike, the source gives them in different places.

This test relates to influenza virus (strain A/Puerto Rico/8/34/H1N1 depicted PR8). The settings on record: n=2.

Turning to `O=C(Nc1ccc([N+](=O)[O-])cc1Cl)c1cc(Cl)cc(Cl)c1O` [TVB-1326], the relative infection by setting is: (0.1 µM) 1.02; (0.3 µM) 0.94; (0.9 µM) 0.90; (2.8 µM) 0.78; (8.3 µM) 0.68; (25.0 µM) 0.01.

With `O=C(Nc1ccc([N+](=O)[O-])cc1Cl)c1cc(Cl)ccc1OCCOc1ccccc1` [TVB-1329], the relative infection (0.1 µM) is 0.99; the relative infection (0.3 µM) worked out at 0.98; the relative infection (0.9 µM) is listed as 1.04; the relative infection (2.8 µM) turned out to be 0.99; the relative infection (8.3 µM) is 0.69; the relative infection (25.0 µM) worked out at 0.04.

`O=C(Nc1ccc([N+](=O)[O-])cc1Cl)c1ccccc1O` [TVB-1332] yielded a relative infection (0.1 µM) of 1.04; a relative infection (0.3 µM) of 1.06; a relative infection (0.9 µM) of 1.04; a relative infection (8.3 µM) of 0.02; a relative infection (25.0 µM) of 0.00.

As for `CS(=O)(=O)c1ccc(NC(=O)c2cc(Cl)ccc2O)c(Cl)c1` [TVB-1338], the relative infection runs as follows: (0.1 µM) 0.81; (0.3 µM) 0.81; (0.9 µM) 0.78; (2.8 µM) 0.82; (8.3 µM) 0.78.
